# Reference: patent US20130123481A1, “MODIFIED NUCLEOSIDES, NUCLEOTIDES, AND NUCLEIC ACIDS, AND USES THEREOF” (MODERNA THERAPEUTICS, priority 2011, published 2013)
# Tested on: peripheral blood mononuclear cells (PBMC)
# Test: In Vitro Screening in PBMC - G-CSF protein expression
# Format: cell-based, human
# Conditions: PBMC Donor 1; 500 ng mRNA, 0.4 uL Lipofectamine 2000
# From the text: The supernatant was harvested and stored frozen until analyzed by ELISA to determine the G-CSF protein expression, and the induction of the cytokines interferon-alpha (IFN-α) and tumor necrosis factor alpha (TNF-α).
row,Compound,G-CSF Protein Expression [pg/mL]
1,Cn1cnc2c(ncn2[C@@H]2O[C@H](CO)[C@@H](O)[C@H]2O)c1=N [N1-methyladenosine],182
2,COC(=O)C=Cc1cn([C@@H]2O[C@H](CO)[C@@H](O)[C@H]2O)c(=O)[nH]c1=O [5-(2-carbomethoxyvinyl)uridine],77
3,Nc1nc(=O)n([C@@H]2O[C@H](CO)[C@@H](O)[C@H]2O)cc1C=O [5-formylcytidine],18
4,CNc1ncnc2c1ncn2[C@@H]1O[C@H](CO)[C@@H](O)[C@H]1O [N6-methyladenosine],100

# Same assay, conditions: PBMC Donor 2; 500 ng mRNA
row,Compound,G-CSF Protein Expression [pg/mL]
1,Cn1cnc2c(ncn2[C@@H]2O[C@H](CO)[C@@H](O)[C@H]2O)c1=N [N1-methyladenosine],177
2,COC(=O)C=Cc1cn([C@@H]2O[C@H](CO)[C@@H](O)[C@H]2O)c(=O)[nH]c1=O [5-(2-carbomethoxyvinyl)uridine],286
3,Nc1nc(=O)n([C@@H]2O[C@H](CO)[C@@H](O)[C@H]2O)cc1C=O [5-formylcytidine],205
4,CNc1ncnc2c1ncn2[C@@H]1O[C@H](CO)[C@@H](O)[C@H]1O [N6-methyladenosine],168

# Same assay, conditions: PBMC Donor 3; 500 ng mRNA
row,Compound,G-CSF Protein Expression [pg/mL]
1,Cn1cnc2c(ncn2[C@@H]2O[C@H](CO)[C@@H](O)[C@H]2O)c1=N [N1-methyladenosine],191
2,COC(=O)C=Cc1cn([C@@H]2O[C@H](CO)[C@@H](O)[C@H]2O)c(=O)[nH]c1=O [5-(2-carbomethoxyvinyl)uridine],177
3,Nc1nc(=O)n([C@@H]2O[C@H](CO)[C@@H](O)[C@H]2O)cc1C=O [5-formylcytidine],23
4,CNc1ncnc2c1ncn2[C@@H]1O[C@H](CO)[C@@H](O)[C@H]1O [N6-methyladenosine],200

# Tested on: human embryonic kidney 293 (HEK293) cells
# Test: Toxicity of Nucleoside Triphosphates (NTPs), CYTO TOX-GLO assay
# Format: cell-based
# Conditions: HEK293; individual NTP 2.1 nM; 4 hr
# Protocol: The cytotoxicity of natural and modified nucleoside triphosphates (NTPs) alone or in combination with other bases, was analyzed in human embryonic kidney 293 (HEK293) cells in the absence of transfection reagent. […] 10 ul of the NTPs outlined in Table 12 were combined with 10 ul of lipid dilution and incubated for 30 minutes to form a complex before 80 ul of the HEK293 cell suspension was added to the NTP complex. Natural and modified NTPs were transfected at a concentration of 2.1 nM, 21 nM, 210 nM, 2.1 um, 21 uM, 210 um or 2.1 mM. NTPs in combination were transfected at a total concentration of NTPs of 8.4 nM, 84 nM, 840 nM, 8.4 uM, 84 uM, 840 uM and 8.4 mM.
row,Compound,percent of viable cells [%]
1,Cn1cc([C@@H]2O[C@H](CO)[C@@H](O)[C@H]2O)c(=O)[nH]c1=O [N1-methyl pseudouridine],91.89

# Same assay, conditions: HEK293; individual NTP 2.1 nM; 24 hr
row,Compound,percent of viable cells [%]
1,Cn1cc([C@@H]2O[C@H](CO)[C@@H](O)[C@H]2O)c(=O)[nH]c1=O [N1-methyl pseudouridine],87.79

# Same assay, conditions: HEK293; individual NTP 2.1 nM; 48 hr
row,Compound,percent of viable cells [%]
1,Cn1cc([C@@H]2O[C@H](CO)[C@@H](O)[C@H]2O)c(=O)[nH]c1=O [N1-methyl pseudouridine],87.81

# Same assay, conditions: HEK293; individual NTP 2.1 nM; 72 hr
row,Compound,percent of viable cells [%]
1,Cn1cc([C@@H]2O[C@H](CO)[C@@H](O)[C@H]2O)c(=O)[nH]c1=O [N1-methyl pseudouridine],92.98

# Same assay, conditions: HEK293; individual NTP 21 nM; 4 hr
row,Compound,percent of viable cells [%]
1,Cn1cc([C@@H]2O[C@H](CO)[C@@H](O)[C@H]2O)c(=O)[nH]c1=O [N1-methyl pseudouridine],91.44

# Same assay, conditions: HEK293; individual NTP 21 nM; 24 hr
row,Compound,percent of viable cells [%]
1,Cn1cc([C@@H]2O[C@H](CO)[C@@H](O)[C@H]2O)c(=O)[nH]c1=O [N1-methyl pseudouridine],86.85

# Same assay, conditions: HEK293; individual NTP 21 nM; 48 hr
row,Compound,percent of viable cells [%]
1,Cn1cc([C@@H]2O[C@H](CO)[C@@H](O)[C@H]2O)c(=O)[nH]c1=O [N1-methyl pseudouridine],86.72

# Same assay, conditions: HEK293; individual NTP 21 nM; 72 hr
row,Compound,percent of viable cells [%]
1,Cn1cc([C@@H]2O[C@H](CO)[C@@H](O)[C@H]2O)c(=O)[nH]c1=O [N1-methyl pseudouridine],92.84

# Same assay, conditions: HEK293; individual NTP 210 nM; 4 hr
row,Compound,percent of viable cells [%]
1,Cn1cc([C@@H]2O[C@H](CO)[C@@H](O)[C@H]2O)c(=O)[nH]c1=O [N1-methyl pseudouridine],92.15

# Same assay, conditions: HEK293; individual NTP 210 nM; 24 hr
row,Compound,percent of viable cells [%]
1,Cn1cc([C@@H]2O[C@H](CO)[C@@H](O)[C@H]2O)c(=O)[nH]c1=O [N1-methyl pseudouridine],85.89

# Same assay, conditions: HEK293; individual NTP 210 nM; 48 hr
row,Compound,percent of viable cells [%]
1,Cn1cc([C@@H]2O[C@H](CO)[C@@H](O)[C@H]2O)c(=O)[nH]c1=O [N1-methyl pseudouridine],87.38

# Same assay, conditions: HEK293; individual NTP 210 nM; 72 hr
row,Compound,percent of viable cells [%]
1,Cn1cc([C@@H]2O[C@H](CO)[C@@H](O)[C@H]2O)c(=O)[nH]c1=O [N1-methyl pseudouridine],92.40

# Same assay, conditions: HEK293; individual NTP 2.1 uM; 4 hr
row,Compound,percent of viable cells [%]
1,Cn1cc([C@@H]2O[C@H](CO)[C@@H](O)[C@H]2O)c(=O)[nH]c1=O [N1-methyl pseudouridine],90.41

# Same assay, conditions: HEK293; individual NTP 2.1 uM; 24 hr
row,Compound,percent of viable cells [%]
1,Cn1cc([C@@H]2O[C@H](CO)[C@@H](O)[C@H]2O)c(=O)[nH]c1=O [N1-methyl pseudouridine],85.72

# Same assay, conditions: HEK293; individual NTP 2.1 uM; 48 hr
row,Compound,percent of viable cells [%]
1,Cn1cc([C@@H]2O[C@H](CO)[C@@H](O)[C@H]2O)c(=O)[nH]c1=O [N1-methyl pseudouridine],85.85

# Same assay, conditions: HEK293; individual NTP 2.1 uM; 72 hr
row,Compound,percent of viable cells [%]
1,Cn1cc([C@@H]2O[C@H](CO)[C@@H](O)[C@H]2O)c(=O)[nH]c1=O [N1-methyl pseudouridine],92.25

# Same assay, conditions: HEK293; individual NTP 21 uM; 4 hr
row,Compound,percent of viable cells [%]
1,Cn1cc([C@@H]2O[C@H](CO)[C@@H](O)[C@H]2O)c(=O)[nH]c1=O [N1-methyl pseudouridine],91.48

# Same assay, conditions: HEK293; individual NTP 21 uM; 24 hr
row,Compound,percent of viable cells [%]
1,Cn1cc([C@@H]2O[C@H](CO)[C@@H](O)[C@H]2O)c(=O)[nH]c1=O [N1-methyl pseudouridine],85.17

# Same assay, conditions: HEK293; individual NTP 21 uM; 48 hr
row,Compound,percent of viable cells [%]
1,Cn1cc([C@@H]2O[C@H](CO)[C@@H](O)[C@H]2O)c(=O)[nH]c1=O [N1-methyl pseudouridine],87.52

# Same assay, conditions: HEK293; individual NTP 21 uM; 72 hr
row,Compound,percent of viable cells [%]
1,Cn1cc([C@@H]2O[C@H](CO)[C@@H](O)[C@H]2O)c(=O)[nH]c1=O [N1-methyl pseudouridine],93.83

# Same assay, conditions: HEK293; individual NTP 210 uM; 4 hr
row,Compound,percent of viable cells [%]
1,Cn1cc([C@@H]2O[C@H](CO)[C@@H](O)[C@H]2O)c(=O)[nH]c1=O [N1-methyl pseudouridine],91.43

# Same assay, conditions: HEK293; individual NTP 210 uM; 24 hr
row,Compound,percent of viable cells [%]
1,Cn1cc([C@@H]2O[C@H](CO)[C@@H](O)[C@H]2O)c(=O)[nH]c1=O [N1-methyl pseudouridine],86.48

# Same assay, conditions: HEK293; individual NTP 210 uM; 48 hr
row,Compound,percent of viable cells [%]
1,Cn1cc([C@@H]2O[C@H](CO)[C@@H](O)[C@H]2O)c(=O)[nH]c1=O [N1-methyl pseudouridine],86.02

# Same assay, conditions: HEK293; individual NTP 210 uM; 72 hr
row,Compound,percent of viable cells [%]
1,Cn1cc([C@@H]2O[C@H](CO)[C@@H](O)[C@H]2O)c(=O)[nH]c1=O [N1-methyl pseudouridine],93.03

# Same assay, conditions: HEK293; individual NTP 2.1 mM; 4 hr
row,Compound,percent of viable cells [%]
1,Cn1cc([C@@H]2O[C@H](CO)[C@@H](O)[C@H]2O)c(=O)[nH]c1=O [N1-methyl pseudouridine],92.45

# Same assay, conditions: HEK293; individual NTP 2.1 mM; 24 hr
row,Compound,percent of viable cells [%]
1,Cn1cc([C@@H]2O[C@H](CO)[C@@H](O)[C@H]2O)c(=O)[nH]c1=O [N1-methyl pseudouridine],88.92

# Same assay, conditions: HEK293; individual NTP 2.1 mM; 48 hr
row,Compound,percent of viable cells [%]
1,Cn1cc([C@@H]2O[C@H](CO)[C@@H](O)[C@H]2O)c(=O)[nH]c1=O [N1-methyl pseudouridine],89.84

# Same assay, conditions: HEK293; individual NTP 2.1 mM; 72 hr
row,Compound,percent of viable cells [%]
1,Cn1cc([C@@H]2O[C@H](CO)[C@@H](O)[C@H]2O)c(=O)[nH]c1=O [N1-methyl pseudouridine],96.80
